Values of other authors, collected in patent publication US10603382B2, “Ophthalmic composition” (Johnson & Johnson Consumer Inc., priority 2014, dated 2020).

Conditions: Merck Index, Twelfth Edition

| Solubility (g/100 ml water at 25° C.) [g/100 ml] | SMILES |
| --- | --- |
| 78 | O=C(O)/C=C\C(=O)O [Maleic acid] |
| 0.63 | O=C(O)/C=C/C(=O)O [Fumaric acid] |

| SMILES | Solubility (g/100 ml water at 25° C.) [g/100 ml] |
| --- | --- |
| O=C(O)CCCC(=O)O [Glutaric acid] | 63.9 |
